These results are taken from patent US12391737B2, “Soluble NPY2 receptor agonists” (Boehringer Ingelheim International GmbH, priority 2020, dated 2025).

Data set [1] addresses T1, human NPY5 receptor (hY5R) (Homo sapiens, UniProt Q15761).
T1 sequence (Q15761 1-445): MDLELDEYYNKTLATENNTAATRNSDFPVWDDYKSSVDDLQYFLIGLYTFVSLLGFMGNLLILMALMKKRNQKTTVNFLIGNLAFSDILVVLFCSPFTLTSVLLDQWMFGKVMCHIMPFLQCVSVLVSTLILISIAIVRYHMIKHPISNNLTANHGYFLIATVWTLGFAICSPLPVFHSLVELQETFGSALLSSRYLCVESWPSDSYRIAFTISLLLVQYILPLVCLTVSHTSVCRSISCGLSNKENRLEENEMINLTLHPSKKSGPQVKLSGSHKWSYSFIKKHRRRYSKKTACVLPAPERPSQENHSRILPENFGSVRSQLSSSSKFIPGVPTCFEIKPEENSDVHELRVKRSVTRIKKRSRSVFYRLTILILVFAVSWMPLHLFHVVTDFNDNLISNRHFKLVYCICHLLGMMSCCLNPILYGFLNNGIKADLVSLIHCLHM
Kind of data set: HTRF cAMP Gi assay, hY5R. (TR-FRET usually uses a lanthanide donor and a delayed reading to cut background.)

A further data set in a line: Solubility determination. To be noted: for Sol6: pH 6; for Sol7: pH 7. In a few lines: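 Sample: TFA-salt peptide at 10 mg/ml target in 0.1 M Na diphosphate, pH 6.4 or 7.0, shaken 2 h RT, filtered, diluted to 1 mg/ml.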
Data set [2] has as its target T2, human NPY1 receptor (hY1R) (Homo sapiens, UniProt P25929).
T2 construct: expressed in transfected cells; host or cells: CHO-K1
T2 sequence (P25929 1-384): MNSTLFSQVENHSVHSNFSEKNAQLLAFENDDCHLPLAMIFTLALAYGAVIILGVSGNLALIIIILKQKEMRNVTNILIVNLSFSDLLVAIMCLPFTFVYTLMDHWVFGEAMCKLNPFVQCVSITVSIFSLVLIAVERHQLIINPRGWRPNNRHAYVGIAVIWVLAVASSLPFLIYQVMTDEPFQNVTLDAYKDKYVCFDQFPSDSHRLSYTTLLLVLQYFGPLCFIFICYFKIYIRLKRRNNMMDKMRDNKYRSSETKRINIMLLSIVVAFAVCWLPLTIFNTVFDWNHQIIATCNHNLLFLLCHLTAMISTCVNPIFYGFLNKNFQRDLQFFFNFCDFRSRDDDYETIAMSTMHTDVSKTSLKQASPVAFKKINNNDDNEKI
Nature of the data set: HTRF cAMP Gi assay, hY1R. It is filed as cell-based. As to conditions: CHO-K1 cells.
Protocol: Briefly, the production of intracellular cAMP will generate a competition between unlabeled cAMP and exogenously added d2-cAMP for anti-cAMP antibodies conjugated to cryptate. CHO-K1 cells stably expressing the human NPY1, NPY2, NPY4 and NPY5 receptors were used with the cells brought to life from a frozen stock immediately before assay performance. 2000 cells per well were applied for all four NPY receptor subtype assays. A 384-well format was used applying a total volume of 20 μl using 5 μl cells, 2.5 μl peptide agonist, 2.5 μl forskolin and 5 μl of each of the fluorophores. […] Concentration-response evaluation of compounds was performed with 11 concentrations of agonist peptides (covering 3 decades). EC50 values were calculated by nonlinear regression using sigmoid concentration-response with variable slope.

Data set [3] has as its target T3, Human Neuropeptide Y2 Receptor (Homo sapiens, UniProt P49146).
T3 construct: purchased CHEMICON HTS066M
T3 sequence (P49146 1-381): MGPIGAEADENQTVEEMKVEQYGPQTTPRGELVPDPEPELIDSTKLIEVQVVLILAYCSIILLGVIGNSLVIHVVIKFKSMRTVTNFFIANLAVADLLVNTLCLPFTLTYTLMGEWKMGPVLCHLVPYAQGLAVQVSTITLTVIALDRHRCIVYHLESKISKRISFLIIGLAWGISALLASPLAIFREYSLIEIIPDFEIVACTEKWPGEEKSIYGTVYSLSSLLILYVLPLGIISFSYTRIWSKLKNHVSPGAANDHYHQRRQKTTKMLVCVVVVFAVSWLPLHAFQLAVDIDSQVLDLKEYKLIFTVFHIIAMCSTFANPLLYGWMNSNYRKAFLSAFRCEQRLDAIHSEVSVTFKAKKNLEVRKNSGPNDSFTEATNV
Kind of data set: Radioligand binding competition assay (RLB). As to conditions: Table 3, 125I-PYY(1-36) competition; read-out: Ki. In a few lines:
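Displacement of radioligand is measured after 2 h at room temperature with receptor membranes in Mg2+/Ca2+ HEPES buffer, pH 7.4. Filter-bound radioactivity is counted and IC50 obtained from curve fitting.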

Data set [4] deals with T4, human NPY4 receptor (hY4R) (Homo sapiens, UniProt P50391).
T4 construct: expressed in transfected cells; host or cells: CHO-K1
T4 sequence (P50391 whole entry): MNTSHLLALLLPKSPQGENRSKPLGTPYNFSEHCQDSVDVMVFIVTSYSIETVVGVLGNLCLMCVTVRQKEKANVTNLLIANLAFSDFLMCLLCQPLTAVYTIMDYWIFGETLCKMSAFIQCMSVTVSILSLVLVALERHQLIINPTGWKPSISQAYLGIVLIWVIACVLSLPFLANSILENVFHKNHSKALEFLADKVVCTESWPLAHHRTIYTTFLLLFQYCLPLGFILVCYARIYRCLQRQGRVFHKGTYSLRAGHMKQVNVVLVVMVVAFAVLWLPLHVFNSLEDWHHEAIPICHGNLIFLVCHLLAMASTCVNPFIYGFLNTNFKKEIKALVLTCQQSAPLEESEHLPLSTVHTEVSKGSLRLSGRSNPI
Nature of the data set: HTRF cAMP Gi assay, hY4R. It is filed as cell-based. As to conditions: CHO-K1 cells.

SMILES strings stand for the structures. Bounds are passed on as bounds.

One may read the EC50 as the concentration that produces a half-maximal response. The Ki is the dissociation constant of the complex between target and ligand, obtained from inhibition or displacement.

Regarding `CC[C@H](C)[C@H](NC(=O)[C@H](CCC(=O)O)NC(=O)[C@H](CCC(=O)O)NC(=O)[C@@H]1CCCN1C(=O)[C@H](CCC(=O)O)NC(=O)[C@H](C)NC(=O)[C@H](CC(=O)O)NC(=O)[C@H](CCC(=O)O)NC(=O)[C@@H]1CCCN1C(=O)[C@@H]1CCCN1C(=O)[C@H](CCCCNC(=O)CCCCCNC(=O)CC[C@H](NC(=O)CCCCCCCCCCCCCCCCC(=O)O)C(=O)O)NC(=O)[C@H](CCC(=O)O)NC(=O)[C@@H]1CCCN1C(=O)[C@H](C)NC(=O)CC(C)C)C(=O)N[C@@H](CCC(N)=O)C(=O)N[C@@H](CCCNC(=N)N)C(=O)N[C@@H](Cc1ccc(O)cc1)C(=O)N[C@@H](Cc1ccc(O)cc1)C(=O)N[C@H](C(=O)N[C@@H](CO)C(=O)N[C@@H](CC(C)C)C(=O)N[C@@H](CCCNC(=N)N)C(=O)N[C@@H](Cc1c[nH]cn1)C(=O)N[C@@H](Cc1ccc(O)cc1)C(=O)N[C@@H](Cc1ccc(O)cc1)C(=O)N[C@@H](CC(N)=O)C(=O)N[C@@H](Cc1c[nH]c2ccccc12)C(=O)N[C@@H](CC(C)C)C(=O)N[C@H](C(=O)N[C@@H](CCCNC(=N)N)C(=O)N[C@@H](CCC(N)=O)C(=O)N[C@@H](CCCNC(=N)N)C(=O)N[C@@H](Cc1ccc(O)cc1)C(N)=O)[C@@H](C)O)C(C)C` [Compound 118, N{alpha-4}-(3-methylbutanoyl)-N{epsilon-7}-(6-[(4S)-4-carboxy-4-(17-carboxyheptadecanamido)butanamido]hexanoyl)-[4A,7K,9P,13E,17I,18Q,22V,28Y,30W,31L]-hPYY(4-36)], the EC50 in data set [1], in data set [2] and in data set [4] was more than 5 µM each time. Also, the “Sol6” value in the data set “Solubility determination” stood at 10.0 mg/mL. For the same compound, in “Solubility determination”, the “Sol7” value amounted to 9.5 mg/mL. Moreover, in data set [3], the Ki amounted to 1 nM.

Consider `CC(C)CC(=O)N[C@@H](C)C(=O)N1CCC[C@H]1C(=O)N[C@@H](CCC(=O)O)C(=O)N[C@@H](CCCCNC(=O)CCCCCNC(=O)CC[C@H](NC(=O)CCCCCCCCCCCCCCCCC(=O)O)C(=O)O)C(=O)N1CCC[C@H]1C(=O)N[C@@H](CCC(=O)O)C(=O)N[C@@H](CCC(=O)O)C(=O)N[C@@H](C)C(=O)N[C@@H](C)C(=O)N[C@H](C(=O)N1CCC[C@H]1C(=O)N[C@@H](CCC(=O)O)C(=O)N[C@@H](CCC(=O)O)C(=O)N[C@@H](CC(C)C)C(=O)N[C@@H](CCC(N)=O)C(=O)N[C@@H](CCCNC(=N)N)C(=O)N[C@@H](Cc1ccc(O)cc1)C(=O)N[C@@H](Cc1ccc(O)cc1)C(=O)N[C@H](C(=O)N[C@@H](CO)C(=O)N[C@@H](CC(C)C)C(=O)N[C@@H](CCCNC(=N)N)C(=O)N[C@@H](Cc1c[nH]cn1)C(=O)N[C@@H](Cc1ccc(O)cc1)C(=O)N[C@@H](Cc1ccc(O)cc1)C(=O)N[C@@H](CC(N)=O)C(=O)N[C@@H](Cc1c[nH]c2ccccc12)C(=O)N[C@@H](CC(C)C)C(=O)N[C@H](C(=O)N[C@@H](CCCNC(=N)N)C(=O)N[C@@H](CCC(N)=O)C(=O)N[C@@H](CCCNC(=N)N)C(=O)N[C@@H](Cc1ccc(O)cc1)C(N)=O)[C@@H](C)O)C(C)C)[C@@H](C)O` [Compound 128, N{alpha-4}-(3-methylbutanoyl)-N{epsilon-7}-(6-[(4S)-4-carboxy-4-(17-carboxyheptadecanamido)butanamido]hexanoyl)-[4A,7K,9E,11A,13T,18Q,22V,28Y,30W,31L]-hPYY(4-36)], for which the EC50 in data set [1], in data set [2] and in data set [4] was more than 5 µM in each case. Further, the “Sol6” value in “Solubility determination” came out at 10.0 mg/mL. In the data set “Solubility determination”, the “Sol7” value was more than 10.0 mg/mL. Also, in data set [3], the Ki worked out at 2.91 nM.

As for `CC(C)CC(=O)N[C@@H](C)C(=O)N1CCC[C@H]1C(=O)N[C@@H](CCC(=O)O)C(=O)N[C@@H](CCCCNC(=O)CCCCCNC(=O)CC[C@H](NC(=O)CCCCCCCCCCCCCCCCC(=O)O)C(=O)O)C(=O)N1CCC[C@H]1C(=O)N[C@@H](CCC(=O)O)C(=O)N[C@@H](C)C(=O)N[C@@H](CC(=O)O)C(=O)N[C@@H](C)C(=O)N[C@H](C(=O)N1CCC[C@H]1C(=O)N[C@@H](CCC(=O)O)C(=O)N[C@@H](CCC(=O)O)C(=O)N[C@@H](CC(C)C)C(=O)N[C@@H](CCC(N)=O)C(=O)N[C@@H](CCCNC(=N)N)C(=O)N[C@@H](Cc1ccc(O)cc1)C(=O)N[C@@H](Cc1ccc(O)cc1)C(=O)N[C@H](C(=O)N[C@@H](C)C(=O)N[C@@H](CC(C)C)C(=O)N[C@@H](CCCNC(=N)N)C(=O)N[C@@H](Cc1c[nH]cn1)C(=O)N[C@@H](Cc1ccc(O)cc1)C(=O)N[C@@H](Cc1ccc(O)cc1)C(=O)N[C@@H](CC(N)=O)C(=O)N[C@@H](Cc1c[nH]c2ccccc12)C(=O)N[C@@H](CC(C)C)C(=O)N[C@H](C(=O)N[C@@H](CCCNC(=N)N)C(=O)N[C@@H](CCC(N)=O)C(=O)N[C@@H](CCCNC(=N)N)C(=O)N[C@@H](Cc1ccc(O)cc1)C(N)=O)[C@@H](C)O)C(C)C)[C@@H](C)O` [Compound 136, N{alpha-4}-(3-methylbutanoyl)-N{epsilon-7}-(6-[(4S)-4-carboxy-4-(17-carboxyheptadecanamido)butanamido]hexanoyl)-[4A,7K,9E,10A,13T,18Q,22V,23A,28Y,30W,31L]-hPYY(4-36)], the EC50 in data set [1], in data set [2] and in data set [4] was more than 5 µM each time. For the same compound, the “Sol6” value in “Solubility determination” was found to be 9.6 mg/mL. Besides, in “Solubility determination”, the “Sol7” value is 10.0 mg/mL. In addition, the Ki in data set [3] came to 1.07 nM.

`CC[C@H](C)[C@H](NC(=O)[C@H](CCC(=O)O)NC(=O)[C@H](CCC(=O)O)NC(=O)[C@@H]1CCCN1C(=O)[C@H](CO)NC(=O)[C@H](C)NC(=O)[C@H](C)NC(=O)[C@H](CCC(=O)O)NC(=O)[C@H](CCC(=O)O)NC(=O)[C@@H]1CCCN1C(=O)[C@H](CCCCNC(=O)CCCCCNC(=O)CC[C@H](NC(=O)CCCCCCCCCCCCCCCCC(=O)O)C(=O)O)NC(=O)[C@H](CCC(=O)O)NC(=O)[C@@H]1CCCN1C(=O)[C@H](C)NC(=O)CC(C)C)C(=O)N[C@@H](CCC(N)=O)C(=O)N[C@@H](CCCNC(=N)N)C(=O)N[C@@H](Cc1ccc(O)cc1)C(=O)N[C@@H](Cc1ccc(O)cc1)C(=O)N[C@H](C(=O)N[C@@H](CO)C(=O)N[C@@H](CC(C)C)C(=O)N[C@@H](CCCNC(=N)N)C(=O)N[C@@H](Cc1c[nH]cn1)C(=O)N[C@@H](Cc1ccc(O)cc1)C(=O)N[C@@H](Cc1ccc(O)cc1)C(=O)N[C@@H](CC(N)=O)C(=O)N[C@@H](Cc1c[nH]c2ccccc12)C(=O)N[C@@H](CC(C)C)C(=O)N[C@H](C(=O)N[C@@H](CCCNC(=N)N)C(=O)N[C@@H](CCC(N)=O)C(=O)N[C@@H](CCCNC(=N)N)C(=O)N[C@@H](Cc1ccc(O)cc1)C(N)=O)[C@@H](C)O)C(C)C` [Compound 150, N{alpha-4}-(3-methylbutanoyl)-N{epsilon-7}-(6-[(4S)-4-carboxy-4-(17-carboxyheptadecanamido)butanamido]hexanoyl)-[4A,7K,9E,11A,17I,18Q,22V,28Y,30W,31L]-hPYY(4-36)]: the EC50 in data set [1], in data set [2] and in data set [4] was more than 5 µM each time. Also, in “Solubility determination”, the “Sol6” value is 9.7 mg/mL. In “Solubility determination”, the “Sol7” value was found to be 10.0 mg/mL. The Ki in data set [3] was determined as 2.18 nM.
